# Data: PMC6428421 (Nature cell biology, 2019)
# Target: IRAK1 (Homo sapiens, UniProt P51617)
# Assay: KINOMEScan competition kinase-binding assay
# IRAK1, sequence (P51617 whole entry): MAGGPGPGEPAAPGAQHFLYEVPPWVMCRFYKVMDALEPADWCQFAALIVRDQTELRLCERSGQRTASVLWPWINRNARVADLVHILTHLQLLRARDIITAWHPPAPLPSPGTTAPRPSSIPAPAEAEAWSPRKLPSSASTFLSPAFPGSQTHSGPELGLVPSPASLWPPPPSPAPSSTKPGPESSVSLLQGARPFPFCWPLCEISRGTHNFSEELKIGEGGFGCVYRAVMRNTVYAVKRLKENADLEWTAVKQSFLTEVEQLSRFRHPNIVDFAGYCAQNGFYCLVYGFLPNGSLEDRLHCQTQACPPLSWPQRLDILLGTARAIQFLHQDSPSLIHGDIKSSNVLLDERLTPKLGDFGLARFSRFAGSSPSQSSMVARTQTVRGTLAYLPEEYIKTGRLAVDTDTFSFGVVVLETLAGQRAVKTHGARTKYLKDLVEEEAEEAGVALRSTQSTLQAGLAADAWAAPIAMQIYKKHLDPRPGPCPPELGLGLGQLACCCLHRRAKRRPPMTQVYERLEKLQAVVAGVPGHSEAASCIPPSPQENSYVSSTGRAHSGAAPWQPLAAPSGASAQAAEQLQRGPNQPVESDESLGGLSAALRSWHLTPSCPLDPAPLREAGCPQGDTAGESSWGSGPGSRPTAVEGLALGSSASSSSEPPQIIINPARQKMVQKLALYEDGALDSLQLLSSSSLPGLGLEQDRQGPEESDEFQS
compound,measurement,value
"COC(=O)Nc1nc2ccc([S+]([O-])c3ccccc3)cc2[nH]1 (stereo not shown) [OXF, oxfendazole]",Kd,5.8 µM
